In patent publication US9540364B2, “Benzimidazole tetrahydrofuran derivatives” (Merck Sharp & Dohme Corp., priority 2012, dated 2017):

Columns and labels:
[1] = target: recombinant human AMPK complex 7 (containing α2β1γ1) (Homo sapiens (Human), UniProt P54646+Q9Y478); test: In vitro AMPK activation assay (AMPKSAMSF); format: biochemical; details: for EC50: inflection point reflecting 50% of the maximum activation; for Emax: recombinant human AMPK complex 7 (α2β1γ1), 10-point titration, read-out: % Maximum AMP Activation of human AMPK Complex 7
Sequence of recombinant human AMPK complex 7 (containing α2β1γ1) (P54646 whole entry): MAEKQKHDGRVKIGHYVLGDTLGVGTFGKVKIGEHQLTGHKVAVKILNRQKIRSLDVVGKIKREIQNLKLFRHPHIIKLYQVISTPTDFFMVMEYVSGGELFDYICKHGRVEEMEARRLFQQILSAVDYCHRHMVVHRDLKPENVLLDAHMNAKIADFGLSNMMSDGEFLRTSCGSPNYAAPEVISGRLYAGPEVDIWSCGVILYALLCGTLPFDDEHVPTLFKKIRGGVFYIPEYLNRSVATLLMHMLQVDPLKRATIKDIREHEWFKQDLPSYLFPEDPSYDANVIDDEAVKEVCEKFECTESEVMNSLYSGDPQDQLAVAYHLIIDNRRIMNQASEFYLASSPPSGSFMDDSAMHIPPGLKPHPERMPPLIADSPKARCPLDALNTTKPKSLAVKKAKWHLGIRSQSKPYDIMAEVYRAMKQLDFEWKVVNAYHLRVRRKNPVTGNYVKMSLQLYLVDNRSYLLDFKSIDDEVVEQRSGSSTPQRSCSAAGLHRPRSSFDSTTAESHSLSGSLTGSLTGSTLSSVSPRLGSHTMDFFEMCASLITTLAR
Sequence of recombinant human AMPK complex 7 (containing α2β1γ1) (Q9Y478 whole entry): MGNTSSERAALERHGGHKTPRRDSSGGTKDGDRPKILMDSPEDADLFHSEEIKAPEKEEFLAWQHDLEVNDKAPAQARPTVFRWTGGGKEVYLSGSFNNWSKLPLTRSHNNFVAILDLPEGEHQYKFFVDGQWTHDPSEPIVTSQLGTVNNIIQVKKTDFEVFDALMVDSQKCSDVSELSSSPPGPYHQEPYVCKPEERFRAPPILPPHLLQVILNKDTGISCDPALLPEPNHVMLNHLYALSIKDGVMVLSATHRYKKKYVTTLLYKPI
Sequence of recombinant human AMPK complex 7 (containing α2β1γ1) (P54619 whole entry partner): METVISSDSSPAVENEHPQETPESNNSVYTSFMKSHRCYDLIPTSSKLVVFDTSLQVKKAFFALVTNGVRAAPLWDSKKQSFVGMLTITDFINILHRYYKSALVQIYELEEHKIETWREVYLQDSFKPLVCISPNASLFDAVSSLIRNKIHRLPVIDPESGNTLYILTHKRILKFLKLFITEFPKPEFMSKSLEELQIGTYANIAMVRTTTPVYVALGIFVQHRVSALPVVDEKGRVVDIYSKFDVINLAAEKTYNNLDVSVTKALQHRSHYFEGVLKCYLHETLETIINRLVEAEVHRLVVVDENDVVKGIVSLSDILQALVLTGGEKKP
Experimental: The recombinant human AMPK complex 1 (containing α1β1γ1) or AMPK complex 7 (containing α2β1γ1) was obtained from baculovirus expression system. Recombinant viruses were generated by cotransfection of AMPK/pBacPak9 clones with Baculogold baculovirus DNA (Pharmingen) in spodoptera frugiperda 21 cells according to the manufacturer's instructions. Each round of virus amplification was performed for 5 days in Grace's medium containing 10% serum. Virus that had been subjected to three rounds of amplification was used for all protein production procedures. To express the AMPK complex, sf21 cells were adapted to serum free medium (SF900 II, Invitrogen) by sequential dilution from serum containing stocks into SF900II medium and maintained in shaker flasks at 90 rpm at 27° C. The recombinant AMPK enzyme complex was produced by triple infection, one recombinant virus for each of the subunits, in sf21 cells under serum free conditions. Cells were infected in log phase, 1×10^6 cells/ml, at a multiplicity of infection of ˜5. Cells were harvested by centrifugation at 10,000×g for 15 minutes after 72 hours of infection with viruses. The insect cell pellet from 2 liters of culture was resuspended in 50 ml lysis buffer (20 mM Tris-HCl, 50 mM NaCl, 50 mM NaF, 30 mM Na PPi, 0.25 M sucrose, 10 mM ZnCl2, 2 mM DTT, 0.4 mg/ml digitonin) and subjected to two cycles of freeze-thaw lysis in a dry-ice ethanol bath. Insoluble material was removed by centrifugation at 10,000×g and the supernatant was fractionated with use of polyethylene glycol (PEG). The protein fraction precipitating between 2.5 and 6% PEG was used for further purification using a Blue-Sepharose step (Zhou et al, J. Clin. Invest. 108, 1167-1174, 2001).
The in vitro AMPK activation assay is performed in a volume of 30 μl in a 384-well plate. Enzyme reactions were assembled in the microtiter plate by adding 15 μl of 2× enzyme in assay buffer (20 mM HEPES, pH 7.3, 5 mM MgCl2, 3 mM DTT, 0.01% Brij 35 and CamK Kinase, to activate AMPK) to wells which contained either DMSO or compound. The reaction was initiated with the addition of 15 μl 2× substrate mixture containing 200 μM ATP, and 3.0 μM fluorescently labeled SAMS (5-FAM-HMRSAMSGLHLVKRR-COOH) in assay buffer. After 45-minute incubation at 25° C., the reaction was stopped by the addition of 70 μl stop buffer (100 mM HEPES, pH 7.3, 40 mM EDTA, 0.015% Brij 35). Phosphorylated 5-FAM SAMS product is assessed using a Caliper EZ Reader LabChip microfluidics reader. Product conversion is determined by calculating the peak heights of the substrate and product and reporting the product/(product+substrate) peak ratio. The 10-point titration data were expressed as % maximum AMP activation. The results were plotted using 4 parameter fit and the inflection point reflecting 50% of the maximum activation was reported as the EC50.

ob/ob and db/db mice = details: following 8 weeks of administration; cited from earlier work

| SMILES | EC50 [1] | Emax [1] | blood glucose reduction (ob/ob and db/db mice) |
| --- | --- | --- | --- |
| OC[C@H]1OC[C@@H](Oc2nc3cc(-c4ccc(-c5ccc(C6CNCCO6)cc5)cc4)c(Cl)cc3[nH]2)[C@@H]1O (stereo partly drawn) [Example 10] | 34 nM | 210% |  |
| OC[C@H]1OC[C@@H](Oc2nc3cc(-c4ccc(-c5ccc(-n6cccn6)cc5)cc4)c(Cl)cc3[nH]2)[C@@H]1O [Example 9] | 33 nM | 269% |  |
| Cc1cc(-c2ccc(-c3ccc(-c4cc5nc(O[C@@H]6CO[C@H](CO)[C@H]6O)[nH]c5cc4Cl)cc3)cc2)[nH]n1 [Example 4] | 104 nM | 172% |  |
| OC[C@H]1OC[C@@H](Oc2nc3cc(-c4ccc(-c5ccccc5)cc4)c(Cl)cc3[nH]2)[C@@H]1O [Example 1, (2R,3R,4R)-4-[[6-chloro-5-(4-phenylphenyl)-1H-benzimidazol-2-yl]oxy]-2-(hydroxymethyl)tetrahydrofuran-3-ol] | 216 nM | 301% |  |
| OC[C@H]1OC[C@@H](Oc2nc3cc(-c4ccc(-c5ccc(-n6ccnn6)cc5)cc4)c(Cl)cc3[nH]2)[C@@H]1O [Example 7] | 8 nM | 233% |  |
| NC(=O)c1ncn([C@@H]2O[C@H](CO)[C@@H](O)[C@H]2O)c1N [AICAR] |  |  | 35% |
| OC[C@H]1OC[C@@H](Oc2nc3cc(-c4ccc(-c5cccc(F)c5)cc4)c(Cl)cc3[nH]2)[C@@H]1O [Example 2] | 4290 nM | 137% |  |
| N#Cc1ccc(-c2ccc(-c3cc4nc(O[C@@H]5CO[C@H](CO)[C@H]5O)[nH]c4cc3Cl)cc2)c(F)c1 [Example 5] | 209 nM | 288% |  |
| OC[C@H]1OC[C@@H](Oc2nc3cc(-c4ccc(-c5ccc(-c6nccs6)cc5)cc4)c(Cl)cc3[nH]2)[C@@H]1O [Example 12] | 76 nM | 170% |  |

More lines, main results first:

| EC50 [1] | Emax [1] | SMILES | blood glucose reduction (ob/ob and db/db mice) |
| --- | --- | --- | --- |
| 5 nM | 278% | CC(CO)(CO)c1ccc(-c2ccc(-c3cc4nc(O[C@@H]5CO[C@H](CO)[C@H]5O)[nH]c4cc3Cl)cc2)cc1 [Example 8] |  |
| 20 nM | 313% | OC[C@H]1OC[C@@H](Oc2nc3c(F)c(-c4ccc(-c5ccc(-n6cccn6)cc5)cc4)c(F)cc3[nH]2)[C@@H]1O [Example 17] |  |
| 50 nM | 246% | Cc1cc(-c2ccc(-c3ccc(-c4c(F)cc5[nH]c(O[C@@H]6CO[C@H](CO)[C@H]6O)nc5c4F)cc3)cc2)[nH]n1 [Example 20] |  |
| 4 nM | 340% | CNC(=O)c1ccc(-c2ccc(-c3c(F)cc4[nH]c(O[C@@H]5CO[C@H](CO)[C@H]5O)nc4c3F)cc2)cc1 [Example 14] |  |
| 8 nM | 262% | CNC(=O)c1ccc(-c2ccc(-c3cc4nc(O[C@@H]5CO[C@H](CO)[C@H]5O)[nH]c4cc3Cl)cc2)cc1 [Example 3] |  |
| 6 nM | 313% | CC(CO)(CO)c1ccc(-c2ccc(-c3c(F)cc4[nH]c(O[C@@H]5CO[C@H](CO)[C@H]5O)nc4c3F)cc2)cc1 [Example 16] |  |
| 67 nM | 251% | OC[C@H]1OC[C@@H](Oc2nc3c(F)c(-c4ccc(-c5ccc(-c6nccs6)cc5)cc4)c(F)cc3[nH]2)[C@@H]1O [Example 19] |  |
| 38 nM | 230% | N#Cc1ccc(-c2ccc(-c3c(F)cc4[nH]c(O[C@@H]5CO[C@H](CO)[C@H]5O)nc4c3F)cc2)c(F)c1 [Example 21] |  |
| 34 nM | 316% | OC[C@H]1OC[C@@H](Oc2nc3c(F)c(-c4ccc(-c5ccc(C6CNCCO6)cc5)cc4)c(F)cc3[nH]2)[C@@H]1O (stereo partly drawn) [Example 18] |  |
| 5 nM | 283% | OC[C@H]1OC[C@@H](Oc2nc3c(F)c(-c4ccc(-c5ccc(-n6ccnn6)cc5)cc4)c(F)cc3[nH]2)[C@@H]1O [Example 13] |  |
| 3 nM | 299% | OC[C@H]1OC[C@@H](Oc2nc3c(F)c(-c4ccc(-c5ccc(-c6nccc(O)n6)cc5)cc4)c(F)cc3[nH]2)[C@@H]1O [Example 15] |  |
